Laboratory results from the NIST ThermoML archive (doi:10.1021/je0601457).

Assay: xn = mol fraction of the nth substance listed
Conditions: linear displacement

CC(=O)c1cnccn1 [2-acetylpyrazine] + O=C=O
Conditions	mass density [kg/m3]
294.75 K, Liquid, x1 = 0.007	799
296.15 K, Liquid, x1 = 0.025	758
302.35 K, Liquid, x1 = 0.025	790
302.35 K, Liquid, x1 = 0.054	922
303.35 K, Liquid, x1 = 0.007	724
306.25 K, Liquid, x1 = 0.081	946
309.45 K, Liquid, x1 = 0.138	1276
310.35 K, Liquid, x1 = 0.054	837
311.05 K, Liquid, x1 = 0.161	938
312.75 K, Gas, x1 = 0.007	601
312.95 K, Liquid, x1 = 0.114	1092
313.15 K, Liquid, x1 = 0.194	954
313.65 K, Gas, x1 = 0.081	911
314.35 K, Liquid, x1 = 0.138	1258
314.45 K, Gas, x1 = 0.025	815
321.25 K, Gas, x1 = 0.054	785
321.45 K, Liquid, x1 = 0.161	918
321.95 K, Liquid, x1 = 0.194	939
322.05 K, Liquid, x1 = 0.295	1090
322.25 K, Liquid, x1 = 0.138	1238
323.05 K, Liquid, x1 = 0.114	1061
332.55 K, Liquid, x1 = 0.448	1063
332.75 K, Liquid, x1 = 0.138	1216
332.85 K, Gas, x1 = 0.054	739
333.45 K, Liquid, x1 = 0.194	920
333.45 K, Liquid, x1 = 0.295	1014
334.45 K, Gas, x1 = 0.081	856
334.95 K, Liquid, x1 = 0.114	1023
337.95 K, Liquid, x1 = 0.161	887
340.45 K, Gas, x1 = 0.025	718
343.75 K, Liquid, x1 = 0.295	998
345.75 K, Liquid, x1 = 0.138	1187
346.35 K, Liquid, x1 = 0.944	1013
348.05 K, Liquid, x1 = 0.448	1037
348.55 K, Liquid, x1 = 0.114	993
348.75 K, Gas, x1 = 0.054	702
351.15 K, Liquid, x1 = 0.194	892
353.55 K, Gas, x1 = 0.081	807
353.75 K, Liquid, x1 = 0.161	863
356.05 K, Liquid, x1 = 0.295	979
360.95 K, Liquid, x1 = 0.944	996
363.05 K, Liquid, x1 = 0.138	1148
364.85 K, Liquid, x1 = 0.114	945
366.25 K, Liquid, x1 = 0.448	1007
367.85 K, Liquid, x1 = 0.194	861
368.75 K, Liquid, x1 = 0.295	956
368.85 K, Gas, x1 = 0.025	628
369.55 K, Gas, x1 = 0.081	772
370.85 K, Liquid, x1 = 0.161	832
371.05 K, Liquid, x1 = 0.944	992
371.25 K, Gas, x1 = 0.054	648

COc1cnccn1 [methoxypyrazine] + O=C=O
Liquid
Conditions	mass density [kg/m3]
294.35 K, x1 = 0.107	802
294.55 K, x1 = 0.129	922
295.15 K, x1 = 0.069	809
295.15 K, x1 = 0.919	1033
295.25 K, x1 = 0.015	726
295.25 K, x1 = 0.039	780
295.75 K, x1 = 0.207	911
295.75 K, x1 = 0.379	929
296.35 K, x1 = 0.025	797
296.85 K, x1 = 0.232	981
297.15 K, x1 = 0.919	1109
298.15 K, x1 = 0.379	934
299.55 K, x1 = 0.015	749
299.95 K, x1 = 0.919	1063
303.35 K, x1 = 0.025	778
303.75 K, x1 = 0.015	718
304.35 K, x1 = 0.007	679
305.95 K, x1 = 0.919	1097
306.95 K, x1 = 0.207	945
307.15 K, x1 = 0.069	843
307.55 K, x1 = 0.129	920
307.95 K, x1 = 0.039	778
310.65 K, x1 = 0.107	860
311.95 K, x1 = 0.637	1122
312.55 K, x1 = 0.379	1012
313.55 K, x1 = 0.025	696
314.15 K, x1 = 0.232	987
317.85 K, x1 = 0.919	1085
326.85 K, x1 = 0.129	864
328.45 K, x1 = 0.207	906
330.65 K, x1 = 0.379	982
332.45 K, x1 = 0.232	948
332.65 K, x1 = 0.637	1097
332.65 K, x1 = 0.919	1063
332.85 K, x1 = 0.107	794
348.55 K, x1 = 0.207	866
348.65 K, x1 = 0.379	958
348.95 K, x1 = 0.919	1050
354.15 K, x1 = 0.232	902
354.35 K, x1 = 0.637	1070
366.45 K, x1 = 0.379	933
367.35 K, x1 = 0.637	1055
367.65 K, x1 = 0.207	824
368.95 K, x1 = 0.232	864
